Test results taken from PubChem BioAssay AID2060901 (Molecular Pharmacology Branch, DTP, NCI, 2025).

Test system: 422866-222-R5-J1-PDC complex spheroids viability
Assay: Anticancer human tumor 422866-222-R5-J1-PDC patient-derived pancreatic adenocarcinoma cell line growth inhibition [RAS]
Conditions: for viability, T/C: stronger effect = lower value
From the text: RAS pathway inhibitors in Combinations in Complex Spheroids
A high-throughput screen of multi-cell type tumor spheroids was designed to identify active combinations of RAS pathway inhibitors and targeted small molecules. Complex spheroids include a stromal component modeled by human endothelial cells (HUVEC) and fibroblasts modeled by human mesenchymal stem cells (MSCs). The concentration ranges selected for each drug and investigational agent were based upon clinically achievable concentrations if the clinical Cmax of the agent was known.
Compounds. The drugs and investigational agents: abemaciclib (NSC768073), cobimetinib (NSC768068), divarasib (GDC6063, NSC841802), docetaxel (NSC628503), GDC-1971 (RLY-1971, NSC841576), gemcitabine (NSC613327), inavolisib (NSC800729), ipatasertib (NSC767898), KB-0742 (NSC834161), MRTX-1133 (NSC836407), osimertinib (NSC779217), RMC-4630 (NSC839698), RMC-6236 (NSC851965), RMC-6291 (NSC852671), Ro-3306 (NSC812927), sapanisertib (NSC764658), SN-38 (NSC673596), staurosporine (NSC755774), SY5609 (NSC837396), and tovorafenib (DAY101, NSC766906), were obtained from the National Cancer Institute (NCI) Developmental Therapeutics Program Chemical Repository. The FDA-approved anticancer drug set is available from the NCI Developmental Therapeutics Program. […] The stock solutions were prepared in dimethyl sulfoxide (DMSO, Sigma-Aldrich, St. Louis, MO, cat. D2650) at 800-fold the tested concentration and stored at -70 degrees C prior to their use. All drugs and investigational agents were tested over a range starting from a high concentration at or near the clinical Cmax and decreasing in half-log increments. If the clinical Cmax for an agent had not been determined, the highest concentration tested was 10 microM.
Cell Culture. All cells were maintained in an incubator at 37 degrees C and 5% CO2 with 95% humidity. The PDC lines were cultured according to standard operating procedures established by the NCI PDMR. All PDCs were thawed and cultured in Matrigel-coated flasks prepared with a working solution of 1X Ham's F-12 nutrient mix, without supplementation (Invitrogen, Waltham, MA, cat. 11765054), 100 U/mL penicillin-streptomycin (Invitrogen, cat. 15140122), and 2.5% Matrigel (Corning Inc., Corning, NY, cat. 354248) for the first three passages. The 362531-283-R-J2-PDC and 782815-120-R-J1-PDC lines were cultured in 6C/Colon 1B media, which includes advanced DMEM/F-12 (Thermo Fisher Scientific, cat. 12634028), 10 mM HEPES (Thermo Fisher Scientific, cat. 15630080), 1X GlutaMAX supplement (Thermo Fisher Scientific, cat. 35050061), 0.1 mg/mL primocin (InvivoGen, San Diego, CA, cat. ant-pm-2), 10% defined fetal bovine serum, heat inactivated (HyClone Laboratories Inc., Logan, UT, cat. SH30070.03HI), 50% L-WRN conditioned media (ATCC, cat. CRL-3276), 1.25 mM N-Acetyl-L-cysteine (Sigma-Aldrich, cat. A9165), 10 mM nicotinamide (Sigma-Aldrich, cat. N0636), 1X B-27 supplement (Thermo Fisher Scientific, cat. 17504044), 1X N-2 supplement (Thermo Fisher Scientific, cat. 17502048), 50 ng/mL human EGF (Thermo Fisher Scientific, cat. PHG0311), and 10 microM Y-27632 dihydrochloride (Tocris Bioscience, cat. 1254). The K12877-001-R-J1-PDC line was cultured in 6I media, which includes all 6C/Colon 1B media plus 10 ng/mL human FGF-10 (PeproTech, cat. 100-26), 1 ng/mL human FGF-2 (PeproTech, cat. 100-18B), 1 µM prostaglandin E2 (Tocris Bioscience, cat. 2296), […] hydrocortisone (Sigma-Aldrich, cat. H4001), and […] bovine insulin (Sigma-Aldrich, cat. I6634). The K86415-001-R-J1-PDC line was cultured in 6D media, which includes all 6C/Colon 1B media components minus the L-WRN conditioned media. The 485176-168-R4-J1-PDC was cultured in PANC media, which includes all 6C/Colon 1B media plus 100 ng/mL human FGF-10 (PeproTech, cat. 100-26), 500 nM SB-431542 (Selleckchem, cat. S1067), and 10 nM gastrin (Tocris Bioscience, cat. 3006). […]

[1] = curve of first compound, second compound 0.0316 µM
[2] = curve of first compound, second compound 0.1 µM
[3] = curve of first compound, second compound 0.316 µM
[4] = curve of first compound, second compound 1 µM
[5] = second compound 0.0316 µM, first compound 0.0316 µM
[6] = second compound 0.0316 µM, first compound 0.1 µM
[7] = second compound 0.0316 µM, first compound 0.316 µM
[8] = second compound 0.0316 µM, first compound 1 µM
[9] = second compound 0.0316 µM, first compound 3.16 µM
[10] = second compound 0.0316 µM, first compound 10 µM
[11] = second compound 0.1 µM, first compound 0.0316 µM
[12] = second compound 0.1 µM, first compound 0.1 µM
[13] = second compound 0.1 µM, first compound 0.316 µM
[14] = second compound 0.1 µM, first compound 1 µM
[15] = second compound 0.1 µM, first compound 3.16 µM
[16] = second compound 0.1 µM, first compound 10 µM
[17] = second compound 0.316 µM, first compound 0.0316 µM
[18] = second compound 0.316 µM, first compound 0.1 µM
[19] = second compound 0.316 µM, first compound 0.316 µM
[20] = second compound 0.316 µM, first compound 1 µM
[21] = second compound 0.316 µM, first compound 3.16 µM
[22] = second compound 0.316 µM, first compound 10 µM
[23] = second compound 1 µM, first compound 0.0316 µM
[24] = second compound 1 µM, first compound 0.1 µM
[25] = second compound 1 µM, first compound 0.316 µM
[26] = second compound 1 µM, first compound 1 µM
[27] = second compound 1 µM, first compound 3.16 µM
[28] = second compound 1 µM, first compound 10 µM
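Throughout, for viability, T/C: 100% = DMSO vehicle control viability.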

`C[C@@H](NC(=O)c1ncnc(N)c1Cl)c1ncc(C(=O)Nc2cc(C(F)(F)F)c(Cl)cn2)s1` + C#Cc1c(F)ccc2cc(O)cc(-c3ncc4c(N5CC6CCC(C5)N6)nc(OCC56CCCN5CC(F)C6)nc4c3F)c12 showed an IC50 [1] of over 10000 nM, an IC50 [2] of over 10000 nM and an IC50 [3] of over 10000 nM. The IC50 [4] was under 31.6 nM, the IC50 (curve of first compound, second compound 3.16 µM) was under 31.6 nM and the IC50 (curve of first compound, second compound 10 µM) was under 31.6 nM. For the same molecule, the viability, T/C [5] was 108%, the viability, T/C [6] was 114% and the viability, T/C [7] was 106%. For the same molecule, the viability, T/C [8] was 117%, the viability, T/C [9] was 89% and the viability, T/C [10] was 57%. The viability, T/C [11] was 103%, the viability, T/C [12] was 88.3% and the viability, T/C [13] was 89.2%. It also gave a viability, T/C [14] of 74%, a viability, T/C [15] of 85.3% and a viability, T/C [16] of 58.3%. The viability, T/C [17] was 68.8%, the viability, T/C [18] was 67% and the viability, T/C [19] was 72.2%. It also gave a viability, T/C [20] of 55%, a viability, T/C [21] of 72.8% and a viability, T/C [22] of 48.1%. It also gave a viability, T/C [23] of 43%, a viability, T/C [24] of 44.5% and a viability, T/C [25] of 45.4%. For the same molecule, the viability, T/C [26] was 39.7%, the viability, T/C [27] was 49.6% and the viability, T/C [28] was 46.7%. For the same molecule, the viability, T/C (second compound 3.16 µM, first compound 0.0316 µM) was 29%, the viability, T/C (second compound 3.16 µM, first compound 0.1 µM) was 28.4% and the viability, T/C (second compound 3.16 µM, first compound 0.316 µM) was 40.1%. The viability, T/C (second compound 3.16 µM, first compound 1 µM) was 28.3%, the viability, T/C (second compound 3.16 µM, first compound 3.16 µM) was 33.1% and the viability, T/C (second compound 3.16 µM, first compound 10 µM) was 27.9%. It also gave a viability, T/C (second compound 10 µM, first compound 0.0316 µM) of 24.3%, a viability, T/C (second compound 10 µM, first compound 0.1 µM) of 22.6% and a viability, T/C (second compound 10 µM, first compound 0.316 µM) of 24.8%. The viability, T/C (second compound 10 µM, first compound 1 µM) was 24.4%, the viability, T/C (second compound 10 µM, first compound 3.16 µM) was 23.9% and the viability, T/C (second compound 10 µM, first compound 10 µM) was 24.5%.
`CCn1c(-c2cc(N3CCN(C)CC3)cnc2C(C)OC)c2c3cc(ccc31)-c1csc(n1)CC(NC(=O)C1CC1C)C(=O)N1CCCC(N1)C(=O)OCC(C)(C)C2` (stereo unspecified) was tested, and the viability, T/C (compound 0.000949 µM) was 29.7% [middle of 8 runs], the viability, T/C (compound 0.003 µM) was 22.6% [middle of 8 runs] and the viability, T/C (compound 0.00949 µM) was 19.6% [middle of 8 runs]. The viability, T/C (compound 0.03 µM) was 20.2% [middle of 8 runs], the viability, T/C (compound 0.0949 µM) was 23% [middle of 8 runs] and the viability, T/C (compound 0.3 µM) was 21.7% [middle of 8 runs]. The IC50 (compound alone, run of 05/20/2024) was under 0.949 nM.
`CC1(O)CCCC1n1c(=O)c(C(F)F)cc2cnc(NC3CCN(S(C)(=O)=O)CC3)nc21` (stereo unspecified) + C=CC(=O)N1CCN(c2nc(OCC3CCCN3C)nc3c(F)c(-c4nc(N)cc(C)c4C(F)(F)F)c(Cl)cc23)C(C)C1 gave an IC50 (curve of first compound, second compound 0.00316 µM) of under 31.6 nM, an IC50 (curve of first compound, second compound 0.01 µM) of under 31.6 nM and an IC50 [1] of under 31.6 nM. For the same molecule, the IC50 [2] was under 31.6 nM, the IC50 [3] was under 31.6 nM and the IC50 [4] was under 31.6 nM. It also gave a viability, T/C (second compound 0.00316 µM, first compound 0.0316 µM) of 32.6%, a viability, T/C (second compound 0.00316 µM, first compound 0.1 µM) of 25.6% and a viability, T/C (second compound 0.00316 µM, first compound 0.316 µM) of 26%. It also gave a viability, T/C (second compound 0.00316 µM, first compound 1 µM) of 31.4%, a viability, T/C (second compound 0.00316 µM, first compound 3.16 µM) of 33.3% and a viability, T/C (second compound 0.00316 µM, first compound 10 µM) of 33.1%. For the same molecule, the viability, T/C (second compound 0.01 µM, first compound 0.0316 µM) was 27.6%, the viability, T/C (second compound 0.01 µM, first compound 0.1 µM) was 25.8% and the viability, T/C (second compound 0.01 µM, first compound 0.316 µM) was 28.1%. For the same molecule, the viability, T/C (second compound 0.01 µM, first compound 1 µM) was 25.4%, the viability, T/C (second compound 0.01 µM, first compound 3.16 µM) was 30.3% and the viability, T/C (second compound 0.01 µM, first compound 10 µM) was 33.9%. It also gave a viability, T/C [5] of 33.6%, a viability, T/C [6] of 20.7% and a viability, T/C [7] of 22.5%. For the same molecule, the viability, T/C [8] was 21.6%, the viability, T/C [9] was 26.5% and the viability, T/C [10] was 24.9%. The viability, T/C [11] was 18.4%, the viability, T/C [12] was 19.9% and the viability, T/C [13] was 22.1%. The viability, T/C [14] was 23%, the viability, T/C [15] was 28% and the viability, T/C [16] was 29.3%. It also gave a viability, T/C [17] of 21.9%, a viability, T/C [18] of 20.4% and a viability, T/C [19] of 23.6%. For the same molecule, the viability, T/C [20] was 23.8%, the viability, T/C [21] was 29.7% and the viability, T/C [22] was 35.3%. It also gave a viability, T/C [23] of 20.6%, a viability, T/C [24] of 20.3% and a viability, T/C [25] of 23.9%. The viability, T/C [26] was 23.4%, the viability, T/C [27] was 30.6% and the viability, T/C [28] was 40.1%.
